Experimental data taken from patent US8389739B1, “Modulators of retinoid-related orphan receptor gamma” (Orphagen Pharmaceuticals, priority 2006, dated 2013).

Tests used:
SF-1 (human SF-1) = biological target: T1, SF-1 (human SF-1) (Homo sapiens, UniProt Q13285); experiment: Transcriptional assay of SF-1 as GAL4 hybrid; format: cell-based; conditions: same format as the GAL4-RORγ assay
T1 construct: human SF-1 (NR5A1, aa 198-462); expressed in transfected cells; host or cells: CHO cells, transient transfection
Experimental: (§1) This example also describes several additional tests that were commonly performed to confirm the authenticity of a hit to RORγ. These tests also verified the validity of the transcriptional and biochemical assays used. […] In some cases, close analogs of a confirmed hit were obtained by synthesis or purchase from a commercial source. The series of compounds related to the confirmed hit was then tested in the biochemical and transcriptional assays. The rank order of the potency of the compounds was then compared. […] The data imply in turn that the compounds are binding to the same binding pocket. […]
(§2) Four hours after transfection, cells were dislodged with trypsin and seeded into a 384-well plate at 8,000 cells/well using a Titertek Multidrop 384. […] After incubation for 2 hours at 37 degrees centigrade, the conversion of resazurin to resorufin was measured by fluorescence (excitation at 570 nm and emission at 615 nm). […] Percent viability was determined as 2 hour fluorescence, minus background at t=0 hours, normalized to DMSO controls. […] Luminescence is detected with a Victor 2-V plate reader (Perkin-Elmer) and normalized to luciferase activity of DMSO control wells alone.

RORβ (human RORβ) = biological target: T2, RORβ (human RORβ) (Homo sapiens, UniProt Q92753); experiment: Transcriptional assay of RORβ as GAL4 hybrid; format: cell-based; conditions: same format as the GAL4-RORγ assay
T2 construct: human RORβ (NR1F2, aa 201-459); expressed in transfected cells; host or cells: CHO cells, transient transfection
Experimental: as §1, §2

RORα (mRORα) = biological target: T3, RORα (mRORα) (Mus musculus, UniProt P51448); experiment: Transcriptional assay of RORα as GAL4 hybrid; format: cell-based; conditions: same format as the GAL4-RORγ assay
T3 construct: mRORα (NR1F1, aa 266-523); expressed in transfected cells; host or cells: CHO cells, transient transfection
Experimental: as §1, §2

CHO cells = experiment: Cytotoxicity in CHO cells (resazurin conversion); format: cell-based, Chinese Hamster
Experimental: Four hours after transfection, cells were dislodged with trypsin and seeded into a 384-well plate at 8,000 cells/well using a Titertek Multidrop 384. Edge effects within the 384-well plate were minimized by leaving plates at room temperature for 30 min so that cells plated evenly within each well (Lundholt, Scudder et al. 2003). Plates are maintained at 37° C. in a humidified atmosphere with 7% CO2 overnight. […] Approximately 40 hours later, cytotoxicity in the assay well was characterized by addition of the dye resazurin (O'Brien, Wilson et al. 2000) to a final concentration of 3 μM. After incubation for 2 hours at 37 degrees centigrade, the conversion of resazurin to resorufin was measured by fluorescence (excitation at 570 nm and emission at 615 nm). […] Percent viability was determined as 2 hour fluorescence, minus background at t=0 hours, normalized to DMSO controls. For detection of luciferase activity, media was removed from plates after the measurement of resazurin conversion, and SteadyLite luciferase reagent (Perkin-Elmer) was added (30 μl/well). Luminescence is detected with a Victor 2-V plate reader (Perkin-Elmer) and normalized to luciferase activity of DMSO control wells alone.

T2 sequence (Q92753 212-470): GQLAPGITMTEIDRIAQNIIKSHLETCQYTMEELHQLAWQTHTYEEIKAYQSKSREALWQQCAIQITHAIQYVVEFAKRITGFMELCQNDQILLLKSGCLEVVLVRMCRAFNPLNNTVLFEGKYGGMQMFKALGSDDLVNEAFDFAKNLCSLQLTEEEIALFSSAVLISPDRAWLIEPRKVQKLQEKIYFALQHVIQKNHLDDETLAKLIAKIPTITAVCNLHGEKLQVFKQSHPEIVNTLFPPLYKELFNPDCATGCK
T3 sequence (P51448 266-523): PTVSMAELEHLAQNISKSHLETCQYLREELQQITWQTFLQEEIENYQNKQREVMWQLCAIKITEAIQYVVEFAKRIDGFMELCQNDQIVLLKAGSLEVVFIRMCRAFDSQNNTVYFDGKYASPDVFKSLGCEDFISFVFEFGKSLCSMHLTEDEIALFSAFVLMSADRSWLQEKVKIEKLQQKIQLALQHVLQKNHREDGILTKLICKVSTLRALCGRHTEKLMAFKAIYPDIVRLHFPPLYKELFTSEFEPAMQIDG
T1 sequence (Q13285 198-461 limits assumed): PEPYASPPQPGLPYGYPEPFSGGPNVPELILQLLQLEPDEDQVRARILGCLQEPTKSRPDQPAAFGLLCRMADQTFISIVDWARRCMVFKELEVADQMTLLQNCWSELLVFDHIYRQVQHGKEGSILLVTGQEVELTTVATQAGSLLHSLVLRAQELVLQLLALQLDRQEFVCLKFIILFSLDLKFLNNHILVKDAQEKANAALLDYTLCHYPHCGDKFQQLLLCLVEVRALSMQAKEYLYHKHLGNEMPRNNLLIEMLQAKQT

effect on the transcription of SF-1 (SF-1 (human SF-1)) | effect on the transcription of RORβ (RORβ (human RORβ)) | effect on the transcription of RORα (RORα (mRORα)) | SMILES | concentration not cytotoxic to CHO cells (CHO cells) [µM]
no effects | no effects | no effects | O=S(=O)(c1ccccc1)N(CC(F)(F)F)c1ccc(C(O)(C(F)(F)F)C(F)(F)F)cc1 [Compound T0901317, N-(2,2,2-Trifluoro-ethyl)-N-[4-(2,2,2-trifluoro-1-hydroxy-1-trifluoromethyl-ethyl)-phenyl]-benzenesulfonamide, reference compound] | < 10
no effects | no effects | no effects | CCN(c1ccc(C(O)(C(F)(F)F)C(F)(F)F)cc1)S(=O)(=O)c1ccc([N+](=O)[O-])cc1 [OR-1050, N-Ethyl-4-nitro-N-[4-(2,2,2-trifluoro-1-hydroxy-1-trifluoromethyl-ethyl)-phenyl]-benzenesulfonamide] | 50
